Patent US20100218415A1, “HYDROXYMETHYLFURFURAL ETHERS FROM SUGARS AND HIGHER ALCOHOLS” (FURANIX TECHNOLOGIES B.V., priority 2007, published 2010)
Like-named read-outs stand apart in the source and are kept apart here.

Experiment: Fuel solubility: blends with commercial diesel
Type: physicochemical
Excerpt: Fuel solubility is a primary concern for diesel fuel applications. Not all highly polar oxygenates have good solubility in the current commercial diesel fuels.

Row | miscibility with commercial diesel | miscibility with commercial diesel (5 vol % blend with commercial diesel) | miscibility with commercial diesel (25 vol % blend with commercial diesel) | miscibility with commercial diesel (40 vol % blend with commercial diesel) | Structure (SMILES)
1 | completely miscible | – | – | – | CCCCCCCCOCc1ccc(C=O)o1 [OMF, 5-(octyloxymethyl)furfural]
2 | – | completely miscible | phase separation occurs | phase separation occurs | CCOCc1ccc(C=O)o1 [EMF, ethoxymethylfurfural]
